Converted amounts (≈) assume the structure as drawn.
Columns and labels:
Test in all cases: minimum inhibitory concentration (ETEST)
[1] = test system: Neisseria subflava/flavescens/perflava; settings: population: general population, antibiotic use in previous 6 months: No
Procedure: (§1)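 Oropharyngeal Neisseria isolates from MSM and employees in Belgium were identified to species by MALDI-TOF MS. MICs of azithromycin, ceftriaxone and ciprofloxacin were determined by ETEST on GC agar after 24 h at 36.5 °C and 5-7% CO2, in mg/L. Values beyond the strip range are reported as >256 (azithromycin) or <0.016 (ceftriaxone); isolates that did not grow are NA.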

Neisseria oralis = settings: population: general population, antibiotic use in previous 6 months: No
Procedure: as §1

Neisseria mucosa/macacae = test system: Neisseria mucosa/macacae
Procedure: as §1

Neisseria gonorrhoeae = settings: isolate id (sample isolate): 19113052_3; population: MSM; antibiotic use in previous 6 months: No
Procedure: as §1

CC[C@H]1OC(=O)[C@H](C)[C@@H](O[C@H]2C[C@@](C)(OC)[C@@H](O)[C@H](C)O2)[C@H](C)[C@@H](O[C@@H]2O[C@H](C)C[C@H](N(C)C)[C@H]2O)[C@](C)(O)C[C@@H](C)CN(C)[C@H](C)[C@@H](O)[C@]1(C)O [azithromycin]
Settings	minimum inhibitory concentration [µg/mL]
Neisseria oralis, isolate id (sample isolate): Co000761_7	2 (≈ 2.67 µM)
Neisseria oralis, isolate id (sample isolate): Co000763_1	1 (≈ 1.34 µM)
Neisseria oralis, isolate id (sample isolate): Co000766_2	1.5 (≈ 2 µM)
Neisseria oralis, isolate id (sample isolate): Co000770_1	2 (≈ 2.67 µM)
Neisseria oralis, isolate id (sample isolate): Co000774_1	3 (≈ 4.01 µM)
Neisseria oralis, isolate id (sample isolate): Co000776_1	4 (≈ 5.34 µM)
Neisseria oralis, isolate id (sample isolate): Co000776_1.1	3 (≈ 4.01 µM)
Neisseria oralis, isolate id (sample isolate): Co000779_2	4 (≈ 5.34 µM)
Neisseria oralis, isolate id (sample isolate): Co000790_5	2 (≈ 2.67 µM)
[1], isolate id (sample isolate): Co000774_2	3 (≈ 4.01 µM)
[1], isolate id (sample isolate): Co000775_1	2 (≈ 2.67 µM)
[1], isolate id (sample isolate): Co000775_2	4 (≈ 5.34 µM)
[1], isolate id (sample isolate): Co000775_3	0.094 (≈ 0.126 µM)
[1], isolate id (sample isolate): Co000776_2	32 (≈ 42.7 µM)
[1], isolate id (sample isolate): Co000776_3	24 (≈ 32 µM)
[1], isolate id (sample isolate): Co000777_1	2 (≈ 2.67 µM)
[1], isolate id (sample isolate): Co000777_2	0.25 (≈ 0.334 µM)
[1], isolate id (sample isolate): Co000777_4	> 256
[1], isolate id (sample isolate): Co000778_1	3 (≈ 4.01 µM)
[1], isolate id (sample isolate): Co000778_2	2 (≈ 2.67 µM)
[1], isolate id (sample isolate): Co000778_3	4 (≈ 5.34 µM)
[1], isolate id (sample isolate): Co000780_4	2 (≈ 2.67 µM)
[1], isolate id (sample isolate): Co000781_1	1.5 (≈ 2 µM)
[1], isolate id (sample isolate): Co000781_3	4 (≈ 5.34 µM)
[1], isolate id (sample isolate): Co000781_4	3 (≈ 4.01 µM)
[1], isolate id (sample isolate): Co000782_2	8 (≈ 10.7 µM)
[1], isolate id (sample isolate): Co000782_3	8 (≈ 10.7 µM)
[1], isolate id (sample isolate): Co000782_4	8 (≈ 10.7 µM)
[1], isolate id (sample isolate): Co000783_1	4 (≈ 5.34 µM)
[1], isolate id (sample isolate): Co000783_2	1.5 (≈ 2 µM)
[1], isolate id (sample isolate): Co000783_5	2 (≈ 2.67 µM)
[1], isolate id (sample isolate): Co000784_1	1.5 (≈ 2 µM)
[1], isolate id (sample isolate): Co000784_2	4 (≈ 5.34 µM)
[1], isolate id (sample isolate): Co000784_5	4 (≈ 5.34 µM)
[1], isolate id (sample isolate): Co000785_1	1 (≈ 1.34 µM)
[1], isolate id (sample isolate): Co000785_2	1.5 (≈ 2 µM)
[1], isolate id (sample isolate): Co000785_3	2 (≈ 2.67 µM)
[1], isolate id (sample isolate): Co000785_4	1 (≈ 1.34 µM)
[1], isolate id (sample isolate): Co000786_1	2 (≈ 2.67 µM)
[1], isolate id (sample isolate): Co000786_2	4 (≈ 5.34 µM)
[1], isolate id (sample isolate): Co000787_1	2 (≈ 2.67 µM)
[1], isolate id (sample isolate): Co000787_2	6 (≈ 8.01 µM)
[1], isolate id (sample isolate): Co000787_4	6 (≈ 8.01 µM)
[1], isolate id (sample isolate): Co000788_2	3 (≈ 4.01 µM)
[1], isolate id (sample isolate): Co000788_3	3 (≈ 4.01 µM)
[1], isolate id (sample isolate): Co000788_5	3 (≈ 4.01 µM)
[1], isolate id (sample isolate): Co000789_1	6 (≈ 8.01 µM)
[1], isolate id (sample isolate): Co000790_2	1 (≈ 1.34 µM)
[1], isolate id (sample isolate): Co000790_4	1.5 (≈ 2 µM)

Neisseria mucosa/macacae
Settings	minimum inhibitory concentration [µg/mL]
isolate id (sample isolate): 19041762_2, population: MSM, antibiotic use in previous 6 months: Yes	3 (≈ 4.01 µM)
isolate id (sample isolate): 19051904_1, population: MSM, antibiotic use in previous 6 months: Yes	2 (≈ 2.67 µM)
isolate id (sample isolate): 19052394_2, population: MSM, antibiotic use in previous 6 months: Yes	4 (≈ 5.34 µM)
isolate id (sample isolate): 19062968_1, population: MSM, antibiotic use in previous 6 months: Yes	16 (≈ 21.4 µM)
isolate id (sample isolate): 19081774_2, population: MSM, antibiotic use in previous 6 months: No	24 (≈ 32 µM)
isolate id (sample isolate): 19111422_4, population: MSM, antibiotic use in previous 6 months: No	1.5 (≈ 2 µM)
isolate id (sample isolate): 19111422_7, population: MSM, antibiotic use in previous 6 months: No	1 (≈ 1.34 µM)
isolate id (sample isolate): Co000770_5, population: general population, antibiotic use in previous 6 months: No	3 (≈ 4.01 µM)
isolate id (sample isolate): Co000771_4, population: general population, antibiotic use in previous 6 months: No	6 (≈ 8.01 µM)
isolate id (sample isolate): Co000772_3, population: general population, antibiotic use in previous 6 months: No	4 (≈ 5.34 µM)
isolate id (sample isolate): Co000773_3, population: general population, antibiotic use in previous 6 months: No	2 (≈ 2.67 µM)
isolate id (sample isolate): Co000779_1, population: general population, antibiotic use in previous 6 months: No	2 (≈ 2.67 µM)
isolate id (sample isolate): Co000783_3, population: general population, antibiotic use in previous 6 months: No	6 (≈ 8.01 µM)
isolate id (sample isolate): Co000783_6, population: general population, antibiotic use in previous 6 months: No	32 (≈ 42.7 µM)
isolate id (sample isolate): Co000787_3, population: general population, antibiotic use in previous 6 months: No	4 (≈ 5.34 µM)
isolate id (sample isolate): Co000788_1, population: general population, antibiotic use in previous 6 months: No	2 (≈ 2.67 µM)
isolate id (sample isolate): Co000788_4, population: general population, antibiotic use in previous 6 months: No	4 (≈ 5.34 µM)

Settings	minimum inhibitory concentration [µg/mL]
Neisseria gonorrhoeae	0.125 (≈ 0.167 µM)
